In series [1] the test system is rat cerebellar granule neurons cultured on monolayers of NIH 3T3 fibroblasts. Kind of series: in vitro neurite outgrowth co-culture assay (axon regeneration). The series is classed as cell-based. As to conditions: for stimulation of neurite outgrowth (in words): agent included in coculture medium, 16 hour culture; for peptide concentration giving maximal effects in neurite outgrowth assay: rat cerebellar neurons on 3T3 monolayer, 16 hours. Here is the method: An example of such an assay is a co-culture assay in which neurons are cultured on top of cellular monolayers for 16 hours, before being fixed and stained with a neuron-specific antibody. The mean length of the longest neurite per cell can then be determined by fluorescence microscopy using an appropriate image analysis programme. The neurons may be, for example, (in this case cerebellar granule cell neurons, hippocampal, dorsal root ganglion, olfactory, motor or dopaminergic neurons. The cellular monolayer is, for example NIH 3T3 fibroblasts.
Monolayers of NIH 3T3 fibroblasts were established by seeding 80,000 cells per well in Lab-Tek 8-chamber slides previously coated sequentially with poly-L-lysine and fibronectin and culturing them overnight in DMEM+10% FCS growth medium.
Cerebellum was dissected from post-natal day 2-4 rat pups and the meninges and extraneous tissue discarded. Cerebellum was chopped into small pieces and trypsinised for 10 minutes at 37° C. Trypsin was neutralised using growth medium and the cells pelletted at 1000×g for 7 minutes. Cerebellar neurons were then resuspended in SATO growth medium containing 2% FCS, counted, and plated on top of the fibroblast monolayer at a density of 1,500 neurons per well. After 16 hours, cocultures were fixed with 4% para-formaldehyde and stained with an anti-GAP43 neuron-specific antibody, which was a gift from Dr Graham Wilkin, Imperial College Department of Biochemistry, London, but any other neuron-specific marker can be used.
The mean neurite length of 150-200 neurons per well was determined using a fluorescent microscope and Zeiss KS300 imaging software.
Peptides A, A(d), B, C, D, E, and F were each incorporated in the SATO medium at a range of concentrations from 0 to 200 μg/ml. Nerve growth factor (NGF) and fibroblast growth factor (FGF2) were used as controls at the same range of concentrations.

Series [2] relates to NIH 3T3 cells. Kind of series: NIH 3T3 cell survival MTS assay in serum-free DMEM (Example 6). The series is classed as cell-based. As to conditions: for survival of NIH3T3 cells in serum-free conditions (in words): FGF2 only at low concentrations; for survival of NIH3T3 cells: low-density cultures. As to the method: NIH 3T3 cells are plated in 96-well plates at a density of 5,500 cells/well in 100 μl DMEM containing 0.5% FCS. After 24 hours, this medium is aspirated from the wells and replaced with 100 μl serum-free DMEM alone, or supplemented with 0.5% FCS (positive control), or a single potential survival factor, with four identical wells set up for each condition. The cells are left for up to seven days at 37 degrees and 8% CO2 before the cell survival is determined using an MTS assay. In this assay 20 μl of MTS substrate is added to each 100 μl well and the plate left in the incubator for up to four hours. Respiring cells produce a coloured reaction product that can be read using a spectrophotometer at 490 nm. […] The mean absorbance at 490 nm+/−SEM is determined for the four identically set up wells. Wells containing a known survival factor such as insulin will contain more living cells after three days than cells cultured in unsupplemented medium.

Series [3] relates to NIH 3T3 fibroblasts. The experiment in a line: survival of 3T3 fibroblasts in serum-free DMEM (MTS and morphologic method, Example 5a). As to conditions: in the presence of FGF. The series is classed as cell-based. As to the method: NIH 3T3 fibroblasts were plated in each well of a 96-well microtitre plate at a density of 7,000 cells per well in DMEM containing 3% FCS and left to attach overnight. The following day the growth medium was removed and replaced with 0.1 ml DMEM supplemented with FGF or Peptide A(d) or both, eight wells for each condition. The negative control was DMEM alone (maximal cell death) and the positive control was supplementation with 0.5% FCS (maximal cell survival).
Six days later (seven days from first plating the cells), the relative number of living cells in each well was assessed by adding the mitochondrial substrate MTS, [3-(4,5-dmethylthiazol-2-yl)-5-(3-carboxymethoxyphenyl)-2-(4-sulphophenyl)-2H-tetrazolium, inner salt), for four hours before reading the optical density on a microtitre plate reader at a wavelength of 490 nm. The optical density gives a measure of the number of respiring cells present in each well at the end of the assay period.
In addition to the biochemical assay, survival was assessed qualitatively using a morphologic method in which cells were plated in 8-chamber Lab Tek slides in DbEM alone (negative control), or DMEM supplemented with 0.5 ng/ml FGF2; 0.5% FCS (positive control), or 25-200 μg/ml Peptide A(d). After three days the cells were fixed with 4% paraformaldehyde, permeablised with methanol and stained with TRITC-conjugated falloidin to visualise the cell cytoskeleton.
(Tetrazolium dyes change colour on reduction, which living cells bring about.)

In series [4] the test system is L6 cell line. Kind of series: survival of L6 cell line lacking FGF receptors. As to conditions: FGF2 0.1, 1 and 10 ng/ml; Peptide A(d) 100 and 400 μg/ml. The series is classed as cell-based. As to the method:
FIG. 2d compares the effects of DMEM, FCS, FGF2 at 0.1, 1 and 10 ng/ml, insulin at 0.5 and 5 μg/ml, and Peptide A(d) at 100 and 400 μg/ml.

In series [5] the test system is MAP kinase. The experiment in a line: Western blot for tyrosine phosphorylated MAP kinase in NIH 3T3 cells. As to conditions: 10 minutes. Type of series: cell-based. As to the method:
A Western blot (FIG. 2f) was obtained as follows: one million NIH 3T3 cells were serum starved for 24 hours then challenged with the following agents: DMEM, 10% FCS, 0.1 ng/ml FGF2, 1 ng/ml FGF2, 10 ng/ml FGF2, 5 μg/ml insulin, 400 μg/ml peptide 52 for 10 minutes at 37 degrees Celsius before being lysed in sample buffer and band separated by PAGE. Proteins were transferred to PVDF membranes and probed with an antibody that recognises tyrosine phosphorylated MAP kinse (upper panel).
Background: In western blotting, separated proteins are transferred to a membrane and probed.

Series [6] deals with DRG neurons. The series is classed as cell-based, rat. As to conditions: 10 ng/ml, 10 days in SATO medium. As to the method: DRG neurons were taken from embryonic day 16 rates and cultured at a density of-10,000 cells/well of a 96-well plate-over 10 days in SATO medium, unsupplemented or supplemented with 10 ng/ml NGF, 10 ng/ml FGF2 or 800 ng/ml Peptide A(d). An OD of 100% reflects the baseline cell survival n the absence of any supplement in the medium.

Series [7] concerns NIH 3T3 cells. The experiment in a line: NIH 3T3 survival and morphology, TRITC-conjugated phalloidin staining. The series is classed as cell-based. As to conditions: three days.
Series [8] deals with NIH3T3 cells. The experiment in a line: cell survival/proliferation at two plating densities. The text has this:
FGF2 is a mitogen for a range of cells, including NIH3T3 cells.

Series [9] relates to cells in S phase (bromodeoxyuridine incorporation into DNA). Kind of series: bromodeoxyuridine incorporation (entry into S phase) mitogenicity assay. As to conditions: six hours. The series is classed as cell-based. As to the method: The mitogenicity of an agent can be determined by testing its ability to stimulate entry of cells into ‘S’ phase in readiness for cell division. This is done by standard methodology and involves incubating cells in the presence of a potential mitogen in DMEM supplemented with bromodeoxyuridine. After six hours the cells are fixed and stained with an antibody recognising bromodeoxyuridine. Cells in S phase can be distinguished by their incorporation of bromodeoxyuridine into DNA.

Series [10] deals with Oligodendrocyte progenitors (O4 positive). Type of series: cell-based, rat. As to conditions: six days in culture, medium supplemented with insulin. The source says: Oligodendrocyte progenitors (O4 positive) are purified from postnatal day 4 rat cerebral cortex. First a trypsinised preparation of cortical cells is dissociated to single cell suspension and pre-plated to remove unwanted adherent cells such as microglia and macrophages. Oligodendrocyte progenitors express the O4 antigen, and can be purified by panning on petri-dishes coated with anti O4 antibodies. Unbound cells are removed by gentle washing, then O4 positive cells are removed by triturating them off the plate with DMEM containing 1% FCS, through a flame-polished pasteur pipette. O4 positive cells are plated on polyornithine-coated glass coverslips at a density of 500,000 cells per well in minimal growth medium containing insulin or the peptide Ac-DRVEPYSSTA[lys]2[lys] i.e. [{Ac-DRVEPYSSTA}2-K]2-K-OH, Peptide A(d), for six days, before being fixed and stained with the anti O4 antibody. Viable O4 positive cells are counted for each condition

The mark [11] stands for this setting: insulin 0.5 pg/ml, FGF2 0.1 ng/ml, Peptide A(d) 10 ng/ml.

Where “and” joins values, the source holds several entries; their conditions need not be identical. Identical values can stand only once. Entries after “also recorded” stand apart in the source; their conditions may differ. No end group written: not given here.

Take Ac-ARSEPYSSTA-amide (Ac-ARSEPYSSTA-NH2): the “stimulation of neurite outgrowth (in words)” value (from here on “stimulation”) in [1] was “do not”.
Same read-out and setting: as for Ac-ARVEPYSSTA-amide (Ac-ARVEPYSSTA-NH2), the entry is “do not”.
Ac-PYSSTA-NH2: in [1] (NCAM-stimulated, low peptide concentrations), the “effect on NCAM-stimulated neurite outgrowth” value is reported as “able to inhibit NCAM-stimulated neurite outgrowth”. Also, in [1], the “stimulation” value is reported as “unable to stimulate neurite outgrowth”.
On to “Ac-SIDRVEPYSSTAQ-amide (Ac-SIDRVEPYSSTAQ-NH2) [synthetic 13 amino acid peptide derived from the first fibronectin type III domain of NCAM]”, for which, in [1], the “concentration at which neurite length equalled that stimulated by NCAM” value came to 100 µM and the “stimulation” value was “dose-dependent increase in neurite outgrowth”.
As to “Acetyl-DAVEPYSSTA-amide (Ac-DAVEPYSSTA-NH2) [Peptide F]”, the “stimulation” value in series [1] was “retain the full ability to stimulate neurite outgrowth”.
Consider “Acetyl-DRSEPYSSTA-amide (Ac-DRSEPYSSTA-NH2) [Peptide E]”, for which, in series [1], the “stimulation” value is “retain the full ability to stimulate neurite outgrowth”; the “peptide concentration giving maximal effects in neurite outgrowth assay” value was 50-100 μg/ml and 50-100 μM.
On to “Acetyl-DRVE-amide (Ac-DRVE-NH2) [Peptide B]”, for which, in [1], the “stimulation” value was “could stimulate the response”; the “peptide concentration giving maximal effects in neurite outgrowth assay” value was 75 μg/ml and 150 μM. In series [2], the “survival of NIH3T3 cells in serum-free conditions (in words)” value is given as “able to stimulate cell survival”.
As to Acetyl-EGME-amide [Peptide C], in series [1], the “stimulation” value is on record as “stimulates neurite outgrowth to the same extent as Ac-DRVE-amide”; the “peptide concentration giving maximal effects in neurite outgrowth assay” value was 38 μg/ml and 75 μM. Also, the “survival of NIH3T3 cells in serum-free conditions (in words)” value in series [2] was “able to stimulate cell survival”.
In the case of “Acetyl-EGMEGM-amide (Ac-EGMEGM-NH2) [Peptide D]”, in series [1], the “stimulation” value is reported as “equally active” and the “peptide concentration giving maximal effects in neurite outgrowth assay” value was found to be 100 µM.
For the substance FGF2: fibroblast growth factor (FGF2), in [1], the “stimulation” value is “approximately doubles; also recorded: stimulates neurite outgrowth in this assay with a biphasic dose-response curve”. Further, in [3], the “cells remaining compared with the peptide” value is “far fewer cells remaining”. In addition, the “survival of NIH3T3 cells” value is reported as “ineffective” in series [2] (FGF2 1 ng/ml) and “stimulates apoptosis” in [2] (FGF2 10 ng/ml, three days). In addition, in series [2], the “survival of NIH3T3 cells in serum-free conditions (in words)” value is given as “stimulate dose-dependent survival”. Also, the “survival of L6 cell line” value in [4] is “unable to stimulate the survival”. The MAP kinase activation entry in series [5] (FGF2 0.1 ng/ml) is on record as “did not; also recorded: do not”; in [5] (FGF2 1 or 10 ng/ml), “resulted in MAP kinase activation; also recorded: stimulate MAP kinase activation”. The “increase in DRG neuron survival over unsupplemented baseline” value in [6] is reported as 73%. Further, the “cell survival / morphology” value in series [7] (FGF2 1 and 10 ng/ml) is “reduced in number, and appear apoptotic”; in [7] (setting [11]) it was “stimulate cell survival”. In series [8] (5,500 cells per well, 10 ng/ml FGF2), the “effect on cells plated at low density” value is listed as “stimulates apoptosis”. For the same substance, the “mitogenicity (entry into S phase)” value in series [9] (FGF2 0.1 ng/ml) is recorded as “unable to stimulate entry into S phase”; in series [9] (FGF2 10 ng/ml), “mitogenicity of 10 ng/ml FGF2 can be seen”.
For NGF: Nerve growth factor (NGF), the “stimulation” value in [1] is reported as “approximately doubles”. Moreover, the “increase in DRG neuron survival over unsupplemented baseline” value in series [6] is given as 121%.
Turning to “[{Ac-ADTRSVSEYP}2-K]2-K-OH (also: branched lysine tetramer: four chains on [K]2-K core, core C-terminus free acid (-OH)) [Ac-ADTRSVSEYP [lys]2[lys], 'scrambled' version of Peptide A(d)]”, in series [2], the “survival of NIH3T3 cells in serum-free conditions (in words)” value is “ineffective”.
Consider “[{Ac-ARSEPYSSTA}2-K]2-K-OH (also: branched lysine tetramer: four chains on [K]2-K core, core C-terminus free acid (-OH)) [Ac-ARSEPYSSTA [lys]2[lys], "mutated" multimeric peptide]”, for which, in series [2], the “survival of NIH3T3 cells in serum-free conditions (in words)” value is “stimulated cell survival, though not as potently as the parent peptide”.
Take insulin: known survival factor: in series [2], the “survival of NIH3T3 cells in serum-free conditions (in words)” value is “stimulate dose-dependent survival”. Moreover, in [5] (insulin 5 μg/ml), the MAP kinase activation result was “showed a small activation; also recorded: do not”. Also, the “cell survival / morphology” value in [7] (setting [11]) is “stimulate cell survival”. Besides, the “cells originally plated that survive” value in series [10] was 25%. The cell proliferation entry in series [8] (11,000 cells per well, FGF2 10 ng/ml) is “stimulates cell proliferation”.
As to “soluble NCAM: soluble NCAM (Neuronal Cell Adhesion Molecule)”, the “stimulation” value in series [1] was “approximately doubles”.
